Laboratory results published in publication PMC10534891, “Evaluation of 4-Aminoquinoline Hydrazone Analogues as Potential Leads for Drug-Resistant Malaria” (Molecules, 2023).
Like-named read-outs stand apart in the source and are kept apart here.

Key:
P. falciparum K1 strain [1] = assay: P. falciparum K1 asexual growth inhibition, 48 h, SYBR Green-based plate reader assay; format: cell-based, Plasmodium falciparum; details: Plasmodium falciparum, K1, 48 h, read-out: Plasmodium IC50 ± SE
Procedure: Sixteen 4-amino-6-methoxy-quinoline hydrazone compounds (see Figure S1, Supplementary Materials for full structures), with methyl and phenyl substituents at the 2-position (R = Me, Ph) and various substituents at R’ (Table 1), were tested for their antimalarial activities. A 1% parasitised culture at the trophozoite stage was treated with the compounds for 48 h at concentrations of 0.003050–200 µM (four-fold serial dilution) against the P. falciparum K1 strain, and the growth was measured using the SYBR Green-based plate reader assay.
In total, 1% of infected RBCs at the ring or trophozoites stage was exposed to nine dilutions (four-fold serial dilution) of compounds from 50 mM stock solutions in DMSO. A total of 100 µL of culture volume was added in 96-well plates with 100 µL drug dilutions. Plates were either incubated for 48 h or 72 h at 37 °C, 5% CO2, 5% O2 in N2. Following the incubation, 150 µL of the medium was carefully removed and 150 µL of the 5× SYBR Green solution (prepared by adding 2 µL of 10,000× SYBR Green in 4 mL of PBS) was added to each well. Plates were kept in the dark for 45 min. Fluorescence intensity was measured using a microplate reader (Genius Tecan) with an excitation of 485 nm and an emission of 535 nm.
IC50 values were determined using Graph Pad Prism 5.0. Values were calculated using non-linear regression by using log-transformed drug concentration plotted against dose–response. Parasitaemia was calculated and normalised relative to the response on the controls (cultures without drug).

P. falciparum K1 strain [2] = details: read-out: IC50 (published data); published value for comparison; cited from earlier work

For CCN(CC)CCCC(C)Nc1ccnc2cc(Cl)ccc12 (centres unmarked) [Chloroquine, reference compound], the IC50 (P. falciparum K1 strain [1]) is given as 199 ± 40 nM and the IC50 (P. falciparum K1 strain [2]) is given as 255 ± 49 nM.
